In patent US20090286731A1, “METHODS AND COMPOSITIONS FOR THE TREATMENT OF XEROSTOMIA” (THE REGENTS OF THE UNIVERSITY OF COLORADO, A BODY CORPORATE, priority 2006, published 2009):

Columns and labels:
[1] = system: primary salivary acinar cells; assay: Induction of apoptosis in primary salivary acinar cells (caspase-3 activity); format: cell-based, mouse
Method: In FIG. 3A, all adherent and nonadherent primary parotid acinar cells were collected and lysed in caspase lysis buffer (BioMol QuantiZyme Colormetric Assay kit) and 15 μg of cell lysate was used to analyze the level of enzyme activity for each sample in quadruplicate. The ability of the enzyme to cleave a chromogenic substrate was read at A405 every ten minutes for seven hours and the -fold increase relative to untreated parotid cells is plotted. […] In FIG. 3B, primary submandibular acinar cells were collected in caspase lysis buffer as described above and the -fold increase relative to untreated submandibular cells is plotted. […] Graphs of caspase activity represent all data points collected from five independent experiments and Student's t-test p values were calculated using Microsoft Excel comparing two different treatment groups.
Generation and cultivation of primary salivary acinar cells. Primary salivary acinar cells were prepared from 4-5 week old female FVB or myr-Akt1 transgenic mice. […]
Induction and quantitation of apoptosis. […] Activation of caspase 3 was quantitated using BioMol QuantiZyme Colormetric Assay kit (Plymouth Meeting, Pa.). […] Caspase-3 activity in 15 μg of cellular lysate was measured by the cleavage of Ac-DEVD-pNA substrate and absorbance at A405 was quantitated in a microtiter plate reader (Molecular Devices) at 10-minute intervals for 7 hrs.

ATM and Chk1 = assay: Phosphorylation of ATM, Chk1 and p53 in myr-Akt1 primary salivary acinar cells (immunoblot); format: cell-based, mouse; conditions: with or without siRNA that targeted MDM2
Method: In FIG. 9A, primary salivary acinar cells isolated from myr-Akt1 mice were transfected with various control or MDM2 specific siRNA molecules. Cell lysates were collected 24-72 hrs after transfection and immunoblotted with an anti-MDM2 antibody (top panel) or anti-p53 (DO12, middle panel). […] In lanes 6 and 7, primary salivary acinar cells isolated from myr-Akt1 mice were transfected with siRNA molecules targeting MDM2 for 48 hrs.
Immunoblotting. Tissues were lysed in RIPA (150 mM NaCl, 50 mM Tris, pH 7.4, 2 mM EGTA, 1% Triton X-100, 0.25% sodium deoxycholate) supplemented with protease inhibitor cocktail (Sigma Chemical Company, St. Louis, Mo.), 100 μg/ml phenylmethylsulfonyl fluoride, and 100 U/ml aprotinin (Pierce Chemical Company, Rockford, Ill.). […] Primary salivary acinar cells were lysed in JNK lysis buffer (25 mM HEPES, pH 7.5, 20 mM β-glycerophosphate, 0.1 mM sodium orthovandadate, 0.1% Triton X-100, 0.3M NaCl, 1.5 mM MgCl2, 0.2 mM EDTA, 0.5 mM dithiothreitol, and 10 mM NaF) supplemented with aprotinin (4 μg/ml), Prefebloc (0.5 mg/ml), and leupeptin (2 μg/ml) (Pierce Chemical Company) and 1 mM sodium orthovandate, and the lysates clarified by centrifugation at 4° C. for 30 min at 13,000 rpm in a refrigerated Savant microcentrifuge (Anderson et al., 1999). Protein concentrations were determined using the BCA Protein Assay Kit (Pierce Chemical Company). […]

Akt = assay: IGF1 activation of endogenous Akt in the salivary gland after tail vein injection (anti-phospho-Akt immunoblot); format: in vivo, mice; conditions: for activation of Akt (immunoblotting with anti-phospho-Akt (threonine^473) antibody): salivary gland
Method: (§1) FIGS. 12A-C—IGF1 activation of Akt in vivo and rescue of salivary flow rates 3 days after single γ-irradiation exposure. (FIG. 12A) FVB mice received an injection of 1, 5, 10, or 50 ng/ml recombinant IGF1. Tissue lysates were collected for immunoblotting five minutes after injection and membranes were probed for activation of Akt using a phosphorylation specific antibody. (FIG. 12B) FVB mice received an injection of 5 μg/ml recombinant IGF1 and tissue lysates were collected for immunoblotting 0, 5, 10 or 30 min after injection. Membranes were probed for activated Akt as described in FIG. 12A. Membranes were stripped and re-probed with a total antibody against ERK1/2 as a loading control in both A and B. (FIG. 12C) Four-week old female FVB mice were injected with 5 μg/ml recombinant IGF1 immediately prior to treatment with 1Gy γ-irradiation. Total saliva was collected following carbachol injection as described in FIG. 11 three days after radiation exposure. For Untreated, N=10; for IGF1, N=5; for 1 Gy, N=10, and for 1 Gy+IGF1, N=7. Statistical analysis was performed using Student's t-test in Microsoft Excel.
(§2) γ-irradiation treatment. For in vivo experiments, four-week old female FVB and myr-Akt1 transgenic mice were anesthetized with avertin (0.4-0.6 mg/gm, IP) and the head and neck region was exposed to ionizing radiation using a RS 2000 Biological Irradiator (Humphries et al., 2006). The rest of the body was shielded with 6 mm lead foil and sheets to avoid systemic effects of γ-irradiation. […] For IGF1 injections, mice were anesthetized with avertin and tails were warmed in water to allow dilation of blood vessels. Mice were injected with a total volume of 100 μl of IGF1 diluted in sterile PBS and immediately placed into the radiation chamber.
Stimulation of cells with both IGF1 and EGF produced a synergistic activation of Akt and suppression of apoptosis (Limesand et al., 2003). […] Mice were injected with 1, 5, 10, or 50 μg recombinant IGF1 and the activation of Akt was examined in the salivary gland five minutes after injection.
The inventors also determined the kinetics with which Akt was activated following injection of mice with 5 μg IGF1. Salivary glands were removed at 5, 10, and 30 minutes post-injection, tissue lysates prepared, and the activation of Akt examined by immunoblotting with anti-phospho-Akt ([…]) antibody (FIG. 12B). […] Future studies are needed to determine whether Akt remains activated for longer periods of time.

FVB mice = assay: Salivary flow rate after head and neck γ-irradiation (carbachol-stimulated saliva collection); format: in vivo
Method: FIG. 11—Rescue of salivary flow rates 3 days after single γ-irradiation exposure in Myr-Akt1 mice. Four-week old female FVB and myr-Akt1 mice were exposed to 1, 2, or 5Gy γ-irradiation. Three days after irradiation total saliva was collected (over a five-minute period) following carbachol injection. Statistical analysis was performed using Student's t-test in Microsoft Excel.
as §1
FIG. 13—Rescue of salivary flow rates 30 days after single γ-irradiation exposure by Myr-Akt1 or injection with IGF1. Four-week old female FVB, myr-Akt1 and FVB mice injected with 5 μg/ml recombinant IGF1 were exposed to 1Gy γ-irradiation. IGF1 injections were performed immediately prior to radiation exposure as described in FIGS. 12A-C. Thirty days after exposure to γ-irradiation total saliva was collected following carbachol injection as described in FIG. 11. For unirradiated, untreated, N=8; for unirradiated myr-Akt1, N=8; for unirradiated IGF1 injected, N=8; for 1 Gy irradiated FVB, N=8, for myr-Akt1 riiadiated with 1 Gy, N=6, for FVB that received IGF1 and I Gy, N=6. Statistical analysis was performed using multiple comparison testing in the SAS system.
as §2, with “Mice were injected with a total volume of 100 μl of IGF1 diluted in sterile PBS and immediately placed into the radiation chamber.” left out

salivary acinar cells [2] = assay: Activated caspase-3 staining of irradiated salivary glands (apoptotic cells); format: in vivo; conditions: pretreatment of mice with IGF1
Method: Activated caspase-3 staining. Salivary glands were removed at various time points post-irradiation, fixed in 10% neutral buffered formalin, and then embedded in paraffin. Slides were stained for activated caspase-3 (Cell Signaling #9661; Beverly, Mass.) as previously described (Humphries et al., 2006). Cell counts were performed on a minimum of five fields of view per slide from three mice (total cells counted ranged from 1800-2500 per mouse).

salivary acinar cells [3] = conditions: cited from earlier work

Row | Molecule | apoptosis of salivary acinar cells ([1]; cells from FVB control mice) | apoptosis (caspase-3 activation) ([1]; myr-Akt1 salivary acinar cells, 18 hrs after treatment) | phosphorylation of ATM at serine^1981 (ATM and Chk1) | phosphorylated Akt thirty minutes following administration (Akt; 5 μg IGF1, salivary gland) | time of maximal activation of Akt after injection (Akt; 5 μg IGF1, salivary glands removed at 5, 10 and 30 minutes) | activation of Akt (immunoblotting with anti-phospho-Akt (threonine^473) antibody) (Akt; five minutes after injection of 1 μg and 5 μg IGF1) | activation of Akt (immunoblotting with anti-phospho-Akt (threonine^473) antibody) (Akt; five minutes after injection of 10 and 50 μg IGF1 per mouse) | salivary flow rate, IGF1 alone (FVB mice; 5 μg IGF1, unirradiated mice, three days following injection) | salivary flow rate versus unirradiated FVB control mice (FVB mice; IGF1 injected, unirradiated, thirty-day time point) | irradiation-induced reduction in salivary flow rate (FVB mice; single dose of 5 μg recombinant IGF1 immediately prior to 1 Gy, three days after exposure) | decrease in salivary flow rate compared to controls (FVB mice; single dose of IGF1 prior to 1 Gy γ-irradiation, 30 days after exposure) | number of apoptotic cells after irradiation (salivary acinar cells [2]) | activation of Akt (salivary acinar cells [3]) | apoptosis induced by etoposide (salivary acinar cells [3])
1 | COc1cc([C@@H]2c3cc4c(cc3[C@@H](O[C@@H]3O[C@@H]5CO[C@@H](C)O[C@H]5[C@H](O)[C@H]3O)[C@H]3COC(=O)[C@H]23)OCO4)cc(OC)c1O [etoposide] | induce apoptosis | did induce some apoptosis | resulted in the phosphorylation of ATM |  |  |  |  |  |  |  |  |  |  | 
2 | IGF1: recombinant IGF1, activator of the Akt pathway, injected into the tail vein of mice |  |  |  | could still be detected | five | results in the activation of Akt | did not result in the activation of Akt | had no effect | not a statistical difference | completely suppressed | no decrease in salivary flow rate | significantly decreases the number of apoptotic cells | induces activation of Akt | suppresses apoptosis
